# Earlier results, collected in publication PMC9014845 (Clinical cancer research : an official journal of the …, 2019).
# Key:
# [1] = tested on: patients with FGFR alterations; conditions: cited from earlier work
# [2] = tested on: patients with FGFR alterations; conditions: 23 patients with FGFR alterations; cited from earlier work
SMILES,Overall DCR [1],Patients with stable disease for >3 months [2]
CCN1CCN(c2ccc(Nc3cc(N(C)C(=O)Nc4c(Cl)c(OC)cc(OC)c4Cl)ncn3)cc2)CC1 [BGJ398],37%,
COc1cc(OC)cc(N(CCNC(C)C)c2ccc3ncc(-c4cnn(C)c4)nc3c2)c1 [JNJ-42756493],,8 patients
